Test results taken from patent publication EP1379135B1, “FORMULATIONS COMPRISING ENTRAPPED ACTIVE INGREDIENTS AND USES THEREOF” (THE SCRIPPS RESEARCH INSTITUTE, priority 2001, dated 2002).
Entries after “also recorded” stand apart in the source; their conditions may differ. Like-named read-outs stand apart in the source and are kept apart here.

Columns and labels:
[1] = system: IL-1β induced NO production in normal human articular chondrocytes; assay: IL-1β induced NO production in cultured chondrocytes (NO2 accumulation, Griess reaction); format: cell-based
Procedure: Chondrocytes were isolated from the cartilage by collagenase digestion and maintained in continuous monolayer cultures in DMEM containing 10% fetal bovine serum (FBS). Cell viability after chondrocyte isolation by collagenase digestion of normal cartilage was >95%. This level was maintained for at least 96 hrs post mortem. […] Experiments reported were performed with primary or first passage cells.
Chondrocytes were plated at 40,000 cells/well in 96-well plates in the presence of 1 % FBS. After 48 h, the medium was changed, and the cells were stimulated with IL-1β (Sigma) at a concentration of 5 ng/ml for 24 h. NO production was detected as NO2 accumulation in the culture supernatants by the Griess reaction as described elsewhere (Heval et al., (1994) Methods Enzymol. 233:250). IL-6 in the culture supernatants was measured by ELISA (R&D Systems, Minneapolis, MN) in accordance with the supplier's protocol.

[2] = system: TNFα induced nitric oxide (NO) production in normal human articular chondrocytes; assay: TNFα induced NO production in chondrocytes; format: cell-based
ERK = assay: IL-1β induced MAP kinase activation, ERK (phospho Western blot); format: cell-based, human; conditions: induced by IL-1β
Procedure: Whole cell extracts were prepared from 3 x 10^6 chondrocytes stimulated as described above by lysing the cells on the plate with ice cold lysis buffer (10 mM TrisHCl pH 7.6, 158 mM NaCl, 1 mM EDTA, 0.1% SDS, 1% Triton X-100, leupeptin […], aprotinin 1µg/ml, and 0.5 mM PMSF), which was added immediately before use. The lysates were transferred to Eppendorf tubes and centrifuged at 20,000 g for 30 min at 4 °C. The supernatants were transferred into fresh tubes, and the protein concentration was determined by Bradford assay. Similar amounts of protein were separated by 10% SDS PAGE and transferred to a nitrocellulose filter (Schleicher & Schuell, Keene, NH) by electroblotting. The filter was blocked overnight in 5% milk powder/TBS-T solution and then further incubated with one of the following antibodies: anti-iNOS (C-19, Santa Cruz Biotechnology, Inc., Santa Cruz, CA), anti-COX-2 (Cayman Chemical, Ann Arbor, MI), anti-COX-1 (H-3, Santa Cruz Biotechnology, Inc.), anti-phospho-JNK (phosphoThr 183 /Tyr 185, New England Biolabs, Inc., Beverly, MA), anti-phospho-p38MAP (phospho-Thr […]/Tyr 182, New England Biolabs, Inc.) or anti-phospho-ERK (phosphoThr 180/Tyr 182, New England Biolabs, Inc.) for 2 hrs. […]

In the case of `CC(=O)N[C@H]1C(O)O[C@H](CO)[C@@H](O)[C@@H]1O` (stereo partly drawn) [GlcNAc, N-acetylglucosamine], the “NO production triggered by IL-1β” value [1] is reported as “suppressed NO production; also recorded: stronger inhibition of NO production than GA”, the “concentration of maximal inhibitory effect on NO production” value [1] is reported as 20 mM and the “concentrations not effective in inhibiting NO production” value [1] is reported as “lower than 1 mM”. For the same compound, the IC50 ([1]; Homo sapiens, Chondrocyte, IL-1β 5 ng/ml for 24 h, GlcNAc vs GA p < 0.01, read-out: IC50 (inhibition of NO production)) was 4.1 ± 1.3 mM, the “inhibitory activity on IL-1β induced NO production” value ([1]; concentration of 10 mM) was “demonstrated inhibitory activity” and the “NO production triggered by IL-1β” value ([1]; listed as GIcNAc) was “measurably inhibited NO production in the lower millimolar range”. The “concentrations not effective in inhibiting NO production” value ([1]; listed as GIcNAc) was “below 1 mM”, the “TNFα induced nitric oxide (NO) production” value [2] was “inhibit” and the “ERK MAP kinase activation” value (ERK) was “does not inhibit”.
